# Test results reported in publication PMC9501899 (Journal of the American Chemical Society, 2022).
# What was measured:
# [1] = tested on: Rab10-pThr73; assay: Rab10 dephosphorylation in G2019S LRRK2 MEFs by Western blotting; format: cell-based, mouse
# Procedure: (§1) These PROTACs were then biologically evaluated in mouse embryonic fibroblasts (MEFs) by Western blotting. Briefly, MEFs were treated with compounds at 33 nM and 1 μM for 4 h (Figure 2) and 24 h (Figure S2) separately, and the intracellular level of LRRK2, phosphorylated LRRK2 at Ser935, and phosphorylated Rab10 (pRab10) at Thr73 was determined. Rab10[5],[49] is one of the bona fide substrates of LRRK2, whose phosphorylation status is directly affected by the LRRK2 kinase activity and protein level. Phosphorylation of LRRK2 at Ser935 is a well-studied biomarker site used to assess the efficacy of type 1 LRRK2 inhibitors.[30]
# (§2) Primary MEFs were generated as described in a previous study.[80] Briefly, the uterine horn was collected from adult female mice at day E12.5 and transferred to a 10 cm tissue culture dish containing cold PBS. Two forceps were used to tear the yolk sacs to isolate each embryo. Forceps were cleaned thoroughly with 70% ethanol between each embryo isolation. The embryos were culled, and a tissue piece was collected in a polymerase chain reaction (PCR) tube for genotyping. The red tissue of the embryo was removed, and the remainder was minced with a scalpel blade and incubated with a 7.5 mL trypsin–ethylenediaminetetraacetic acid (EDTA) solution for 10 min in a 37 °C, 5% CO2 tissue culture incubator. The dish was removed from the incubator and checked under a light microscope for single cells. Complete media (7.5 mL) was added to the trypsinized cells, and the cell suspension was transferred to a 15 mL Falcon tube and centrifuged at 1200 rpm for 5 min at room temperature. The trypsin was aspirated, the cell pellet was resuspended in a 5 mL fresh complete media, and the cell suspension was plated in a 60 mm tissue culture dish and incubated in a 37 °C, 5% CO2 tissue culture incubator. The MEFs at this stage were considered as passage 0 and were passaged and expanded for experimental use once the genotype was confirmed by allelic sequencing and immunoblotting. MEFs were cultured in Dulbecco’s modified Eagle’s medium (DMEM) containing 10% (v/v) fetal bovine serum (FBS), 2 mM L-glutamine, 100 U/mL penicillin, and 100 μg/mL streptomycin supplemented with 1× nonessential amino acids and 1 mM sodium pyruvate.
# (§3) Culturing and passaging of adherent cell lines were carried out using an aseptic technique in CL1 or CL2 (for PBMC isolation) biological safety cabinets. All cells were incubated in a 37 °C incubator with 5% CO2. Cell lines were regularly tested for mycoplasma contamination. For Western blot assay, the cells were seeded in six-well plates. For immunoprecipitation of LRRK2, SH-SY5Y cells (cultured in DMEM-F12, supplemented with 15% (v/v) FBS, 100 U/mL penicillin and 100 μg/mL streptomycin, 1× nonessential amino acids, and 1 mM sodium pyruvate) were seeded in a 10 cm dish. All cells were treated with the indicated compounds such that the final concentration of DMSO was 0.1%. Following the treatment of cells with compounds at indicated concentrations and time periods, the media was removed and the cells were washed with PBS and lysed in a 100 μL ice-cold complete lysis buffer containing 50 mM tris–HCl pH 7.4, 1 mM EGTA, 10 mM 2-glycerophosphate, 50 mM sodium fluoride, 5 mM sodium pyrophosphate, 270 mM sucrose, supplemented with 1 μg/mL microcystin-LR, 1 mM sodium orthovanadate, complete EDTA-free protease inhibitor cocktail (Roche), and 1% (v/v) Triton X-100. The cells were immediately placed on ice and were scraped and collected into 1.5 mL Eppendorf tubes. Cell lysates were incubated on ice for 10 min prior to centrifugation at 15 000g at 4 °C for 15 min.
# [2] = molecular target: T1, G2019S LRRK2 (Mus musculus, UniProt Q5S006, G2019S); assay: LRRK2 degradation in G2019S LRRK2 MEFs by Western blotting; format: cell-based
# T1 construct: endogenous in cells; host or cells: G2019S LRRK2 MEFs
# T1 sequence (Q5S006 whole entry G2019S): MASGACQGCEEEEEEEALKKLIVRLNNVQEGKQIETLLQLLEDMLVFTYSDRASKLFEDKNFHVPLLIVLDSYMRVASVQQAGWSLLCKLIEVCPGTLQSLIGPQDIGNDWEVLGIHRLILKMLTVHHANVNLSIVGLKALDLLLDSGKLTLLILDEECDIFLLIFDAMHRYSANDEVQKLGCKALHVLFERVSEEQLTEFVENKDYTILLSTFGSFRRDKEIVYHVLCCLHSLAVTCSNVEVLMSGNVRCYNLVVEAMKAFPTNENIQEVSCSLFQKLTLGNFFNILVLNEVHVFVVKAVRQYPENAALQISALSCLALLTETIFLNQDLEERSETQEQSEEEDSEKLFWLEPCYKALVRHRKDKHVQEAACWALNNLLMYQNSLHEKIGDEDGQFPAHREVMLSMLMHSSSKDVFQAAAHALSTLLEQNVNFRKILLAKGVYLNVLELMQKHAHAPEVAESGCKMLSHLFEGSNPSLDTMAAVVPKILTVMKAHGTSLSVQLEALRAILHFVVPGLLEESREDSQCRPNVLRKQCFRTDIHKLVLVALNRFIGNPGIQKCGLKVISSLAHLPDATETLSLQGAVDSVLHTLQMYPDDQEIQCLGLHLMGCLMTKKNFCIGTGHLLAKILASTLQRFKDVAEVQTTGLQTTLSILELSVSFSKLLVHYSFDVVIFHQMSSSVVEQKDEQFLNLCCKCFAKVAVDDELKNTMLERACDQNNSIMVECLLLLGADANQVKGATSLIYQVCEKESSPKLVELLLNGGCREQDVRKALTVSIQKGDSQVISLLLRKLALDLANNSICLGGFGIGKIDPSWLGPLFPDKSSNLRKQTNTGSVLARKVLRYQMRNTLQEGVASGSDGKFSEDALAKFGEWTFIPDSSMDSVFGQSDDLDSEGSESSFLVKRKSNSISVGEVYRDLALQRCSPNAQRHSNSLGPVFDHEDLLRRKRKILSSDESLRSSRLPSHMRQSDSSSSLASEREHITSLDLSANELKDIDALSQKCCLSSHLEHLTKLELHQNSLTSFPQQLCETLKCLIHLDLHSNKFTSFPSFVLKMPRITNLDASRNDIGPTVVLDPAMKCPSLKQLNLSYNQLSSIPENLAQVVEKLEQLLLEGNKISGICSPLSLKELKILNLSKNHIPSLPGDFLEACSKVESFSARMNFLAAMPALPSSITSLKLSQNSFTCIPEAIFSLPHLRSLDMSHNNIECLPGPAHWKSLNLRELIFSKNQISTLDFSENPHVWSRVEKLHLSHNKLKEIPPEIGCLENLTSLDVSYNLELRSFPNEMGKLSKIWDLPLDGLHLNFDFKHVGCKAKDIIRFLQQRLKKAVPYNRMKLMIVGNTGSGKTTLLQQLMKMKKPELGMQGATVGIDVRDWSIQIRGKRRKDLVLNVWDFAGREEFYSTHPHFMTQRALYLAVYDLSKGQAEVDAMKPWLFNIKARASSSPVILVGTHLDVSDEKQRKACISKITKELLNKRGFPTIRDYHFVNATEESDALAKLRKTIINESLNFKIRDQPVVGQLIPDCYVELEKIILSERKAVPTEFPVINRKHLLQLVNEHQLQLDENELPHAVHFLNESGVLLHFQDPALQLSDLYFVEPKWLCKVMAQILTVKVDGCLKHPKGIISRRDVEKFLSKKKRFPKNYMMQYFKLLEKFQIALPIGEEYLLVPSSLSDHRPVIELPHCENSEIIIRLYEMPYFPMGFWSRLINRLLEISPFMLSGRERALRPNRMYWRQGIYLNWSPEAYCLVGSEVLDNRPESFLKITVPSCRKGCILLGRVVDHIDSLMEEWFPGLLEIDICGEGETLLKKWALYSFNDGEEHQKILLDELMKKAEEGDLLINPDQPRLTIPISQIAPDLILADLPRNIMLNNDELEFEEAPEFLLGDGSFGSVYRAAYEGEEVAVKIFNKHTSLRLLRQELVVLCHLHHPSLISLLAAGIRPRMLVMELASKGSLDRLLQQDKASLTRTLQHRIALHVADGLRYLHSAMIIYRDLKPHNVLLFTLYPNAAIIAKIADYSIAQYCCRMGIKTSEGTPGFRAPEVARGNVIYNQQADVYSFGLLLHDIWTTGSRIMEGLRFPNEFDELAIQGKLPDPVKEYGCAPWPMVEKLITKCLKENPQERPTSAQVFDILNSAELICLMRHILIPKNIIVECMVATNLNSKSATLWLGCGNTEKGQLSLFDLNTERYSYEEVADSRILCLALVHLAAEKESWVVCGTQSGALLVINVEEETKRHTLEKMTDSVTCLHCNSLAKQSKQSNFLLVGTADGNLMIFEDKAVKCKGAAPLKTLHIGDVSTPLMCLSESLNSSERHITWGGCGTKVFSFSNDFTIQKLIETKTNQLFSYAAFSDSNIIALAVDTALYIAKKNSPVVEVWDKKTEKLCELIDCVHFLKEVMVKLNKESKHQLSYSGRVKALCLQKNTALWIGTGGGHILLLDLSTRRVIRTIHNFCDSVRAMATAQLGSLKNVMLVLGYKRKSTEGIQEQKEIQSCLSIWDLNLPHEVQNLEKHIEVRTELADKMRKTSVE
# Procedure: as §1, §2, §3
# [3] = molecular target: T2, WT LRRK2 (Mus musculus, UniProt Q5S006); assay: LRRK2 degradation in WT MEFs by Western blotting; format: cell-based; settings: 4 h
# T2 construct: endogenous in cells; host or cells: wild-type primary MEFs
# T2 sequence (Q5S006 whole entry): as the sequence (Q5S006 whole entry G2019S) above, with S2019G counted along it
# Procedure: as §1, §2, §3
# [4] = tested on: Rab10-pThr73; assay: Rab10 dephosphorylation in WT MEFs by Western blotting; format: cell-based, mouse; settings: Mus musculus; 4 h, WT MEFs; read-out: EC50 WT-pRab10
# Procedure: as §1, §2, §3
# [5] = tested on: LRRK2; assay: Western blot screening of PROTACs in WT and G2019S LRRK2 MEFs; format: cell-based, mouse
# Procedure: as §1, §2
# Culturing and passaging of adherent cell lines were carried out using an aseptic technique in CL1 or CL2 (for PBMC isolation) biological safety cabinets. All cells were incubated in a 37 °C incubator with 5% CO2. Cell lines were regularly tested for mycoplasma contamination. For Western blot assay, the cells were seeded in six-well plates.
structure (smiles),measurement,setting,value
"CNc1nc(Nc2ccc(C(=O)N3CCOCC3)cc2OC)ncc1Cl [HG-10-102-01, reference compound]",EC50,"[1]; Mus musculus, 4 h, G2019S LRRK2 MEFs, read-out: EC50 G2019S pRab10",0.11 µM
same,degradation of G2019S LRRK2 (in words),[2]; 4 h,did not degrade LRRK2
same,degradation of WT LRRK2 (in words),[3],did not degrade LRRK2
same,EC50,[4],0.214 µM
CNc1nc(Nc2ccc(C(=O)N3CCN(CCCOc4cc(-c5scnc5C)ccc4CNC(=O)[C@@H]4C[C@@H](O)CN4C(=O)[C@@H](NC(=O)C4(F)CC4)C(C)(C)C)CC3)cc2OC)ncc1Cl [SD13],G2019S LRRK2 degraded,[2]; 33 nM/4 h,60%
same,G2019S LRRK2 degraded,[2]; 33 nM/24 h,68%
CNc1nc(Nc2ccc(C(=O)N3CCN(Cc4ccc(CSC(C)(C)C(NC(=O)C5(F)CC5)C(=O)N5CC(O)CC5C(=O)NCc5ccc(-c6scnc6C)cc5)cc4)CC3)cc2OC)ncc1Cl (stereo not drawn) [SD100],pRab10 dephosphorylated,[1]; 1 µM,75–90%
same,degradation of LRRK2,[5]; 0.033 µM,< 40%
same,degradation of LRRK2 (in words),"[5]; 33 nM/4 h, WT and G2019S LRRK2 MEFs",little to no degradation
